Measurements as given in US10934326B2, “Peripheral modifications on pocket-redesigned vancomycin analogs synergistically improve antimicrobial potency and durability” (priority 2016, dated 2021).
In brackets after ≈: the same amount, converted by molar mass.

Assays:
[1] = tested on: vancomycin-resistant Enterococcus faecalis (VanA VRE, BM4166); settings: BM 4166; previously reported data; cited from earlier work
[2] = tested on: Enterococcus faecium (VanA VRE, ATCC BAA-2317); settings: previously reported data; cited from earlier work
[3] = tested on: vancomycin-resistant Enterococcus faecalis (VanA VRE, BM4166); experiment: In vitro antimicrobial assay (MIC), VanA E. faecalis; format: cell-based; settings: for MIC: Enterococcus faecalis, VRE, read-out: Antimicrobial Activity, MIC, VanA E. faecalis; for antibiotic susceptibility profile of the strain: VanA E. faecalis BM 4166
From the text: (§1) One day before a study was run, fresh cultures of vancomycin-sensitive Staphylococcus aureus (VSSA strain ATCC 25923), methicillin and oxacillin-resistant Staphylococcus aureus subsp. aureus (MRSA strain ATCC 43300), vancomycin-resistant Enterococcus faecalis (VanA VRE, BM4166), Enterococcus faecium (VanA VRE, ATCC BAA-2317), vancomycin-resistant Enterococcus faecalis (VanB VRE, strain ATCC 51299), Escherichia coli (ATCC 25922), Acinetobacter baumannii (ATCC BAA-1710), Pseudomonas aeruginosa (ATCC 15442), Klebsiella pneumoniae (ATCC 700603) were inoculated and grown in an orbital shaker at 37° C. in 100% Mueller-Hinton broth (VSSA, MRSA and VanB VRE), 100% brain-heart infusion broth (VanA VRE, A. baumannii and K. pneumoniae) or 100% Luria broth (E. coli and P. aeruginosa). After 24 hours, the bacterial stock solutions were serially diluted with the culture medium (10% Mueller-Hinton broth for VSSA, MRSA and VanB VRE or 10% brain-heart infusion broth for VanA VRE A. baumannii and K. pneumoniae or 10% Luria Broth for E. coli and P. aeruginosa) to achieve a turbidity equivalent to a 1:100 dilution of a 0.5 M McFarland solution. This diluted bacterial stock solution was then inoculated in a 96-well V-shaped glass coated microtiter plate, supplemented with serial diluted aliquots of the antibiotic solution in DMSO (4 μL), to achieve a total assay volume of 0.1 mL. The plate was then incubated at 37° C. for 18 hours, after which minimal inhibitory concentrations (MICs) were determined by monitoring the cell growth (observed as a pellet) in the wells.
(§2) The lowest concentration of antibiotic (in μg/mL) capable of eliminating cell growth in the wells is the reported MIC value. The reported MIC values for the vancomycin analogues were determined against vancomycin as a standard in the first well.*
(§3) [*Clinical and Laboratory Standards Institute. Methods for Dilution Antimicrobial Susceptibility Tests for Bacteria That Grow Aerobically; Approved Standard, 7th ed.; CLSI document M07-A8; Clinical and Laboratory Standards Institute: Wayne, Pa., 2009.]

[4] = tested on: Enterococcus faecium (VanA VRE, ATCC BAA-2317); experiment: In vitro antimicrobial assay (MIC), VanA E. faecium; format: cell-based; settings: for MIC: Enterococcus faecium, read-out: Antimicrobial Activity, MIC, VanA E. faecium; for antibiotic susceptibility profile of the strain: VanA E. faecium ATCC BAA-2317
From the text: as §1, §2, §3

[5] = tested on: VanA VRE (E. faecalis BM 4166 and E. faecium ATCC BAA-2317); experiment: Cell wall permeability assay (propidium iodide uptake); format: cell-based, Enterococcus faecalis; Enterococcus faecium
From the text: The effect of the compounds on cell membrane permeability was examined by measuring cytoplasmic membrane uptake of the fluorescent probe propidium iodide in the same VanA vancomycin-resistant E. faecalis (BM 4166) and E. faecium (ATCC BAA-2317) strains. This fluorescent probe only enters cells with permeabilized cell membranes and is detected by the emission of fluorescence upon intracellular nucleic acid binding [Boulos et al., J Microbiol Methods 1999, 37(1):77-86].
Fresh, mid-log phase VanA VRE in pH 7.2 buffer at 25° C. were preincubated with propidium iodide (10 μM) for 5 minutes before the test compounds were added, monitoring the fluorescence emission at 617 nm (excitation at 535 nm) over time, both pre (5 minutes) and post (15 minutes) compound addition. Rapid and sustained increases in fluorescence intensity are observed immediately upon addition of test compounds that induce bacterial cell membrane permeability.
One day before a study was run, cultures of vancomycin-resistant Enterococcus faecalis (VanA VRE, BM4166) and Enterococcus faecium (VanA VRE, ATCC BAA-2317), were inoculated and grown in an orbital shaker at 37° C. in 100% brain-heart infusion broth for 12 hours. The above bacterial solution was subjected to a subculture to obtain fresh mid-log phase bacterial cells (total volume of bacterial suspension=7 mL, incubation time=6 hours, OD600=0.6). After the cultured bacteria were harvested (3000 rpm, 4° C., 20 minutes), the white bacterial precipitate was washed and resuspended in 5 mM glucose and 5 mM HEPES buffer (1:1, 500 μL, pH=7.2).
This bacterial suspension (130 μL) was charged into a 96-well black plate with a clear bottom (Corning 3650). The propidium iodide dye (10 μL, 150 μM DMSO solution) was added to the above suspension and the fluorescence was monitored at 25° C. for 5 minutes at 30 second intervals using a microplate reader (Molecular Devices®, Max Gemini EX) at an excitation wavelength of 535 nm and an emission wavelength of 617 nm. The test compound (150 μM, 10 μL) was added to the cell suspension and the fluorescence was monitored at 25° C. for an additional 15 minutes.

CNC(CC(C)C)C(=O)NC1C(=O)NC(CC(N)=O)C(=O)NC2C(=N)NC3C(=O)NC(C(=O)NC(C(=O)O)c4cc(O)cc(O)c4-c4cc3ccc4O)C(O)c3ccc(c(Cl)c3)Oc3cc2cc(c3OC2OC(CO)C(O)C(O)C2OC2CC(C)(N)C(O)C(C)O2)Oc2ccc(cc2Cl)[C@@H]1O (stereo partly drawn) [Compound 3]
Antimicrobial Activity, MIC, VanA E. faecalis [1]: 0.5 µg/mL
Antimicrobial Activity, MIC, VanA E. faecium [2]: 0.5 µg/mL

CN[C@H](CC(C)C)C(=O)N[C@H]1C(=O)N[C@@H](CC(N)=O)C(=O)N[C@H]2C(=O)N[C@@H]3C(=O)N[C@H](C(=O)N[C@H](C(=O)NCCCN(C)C)c4cc(O)cc(O)c4-c4cc3ccc4O)[C@H](O)c3ccc(c(Cl)c3)Oc3cc2cc(c3OC2OC(CO)C(O)[C@H](O)[C@@H]2O[C@H]2CC(C)(N)[C@H](O)[C@H](C)O2)Oc2ccc(cc2Cl)[C@H]1O (stereo partly drawn) [Compound 9]
MIC [3]: 500 µg/mL (≈ 326 µM)
MIC [4]: 500 µg/mL (≈ 326 µM)
induced cell membrane permeability (propidium uptake) ([5]; 10 μM compound): did not do so

CN[C@H](CC(C)C)C(=O)N[C@H]1C(=O)N[C@@H](CC(N)=O)C(=O)N[C@H]2C(=O)N[C@@H]3C(=O)N[C@H](C(=O)N[C@H](C(=O)NCCC[N+](C)(C)C)c4cc(O)cc(O)c4-c4cc3ccc4O)[C@H](O)c3ccc(c(Cl)c3)Oc3cc2cc(c3OC2OC(CO)C(O)[C@H](O)[C@@H]2O[C@H]2CC(C)(N)[C@H](O)[C@H](C)O2)Oc2ccc(cc2Cl)[C@H]1O (stereo partly drawn) [Compound 10]
MIC [3]: 63 µg/mL
MIC [4]: 126 µg/mL
induced cell membrane permeability (propidium uptake) ([5]; 10 μM compound): did not do so
induced cell membrane permeability (propidium uptake) ([5]; 100 μM compound): exhibited this induced permeability

CN[C@H](CC(C)C)C(=O)N[C@H]1C(=O)N[C@@H](CC(N)=O)C(=O)N[C@H]2C(=O)N[C@@H]3C(=O)N[C@H](C(=O)N[C@H](C(=O)NCCC[N+]4(C)CCCC4)c4cc(O)cc(O)c4-c4cc3ccc4O)[C@H](O)c3ccc(c(Cl)c3)Oc3cc2cc(c3OC2OC(CO)C(O)[C@H](O)[C@@H]2O[C@H]2CC(C)(N)[C@H](O)[C@H](C)O2)Oc2ccc(cc2Cl)[C@H]1O (stereo partly drawn) [Compound 11]
MIC [3]: 4 µg/mL
MIC [4]: 2 µg/mL
induced cell membrane permeability (propidium uptake) ([5]; 10 μM compound): produced pronounced, rapid cell membrane permeability

CN[C@H](CC(C)C)C(=O)N[C@H]1C(=O)N[C@@H](CC(N)=O)C(=O)N[C@H]2C(=O)N[C@@H]3C(=O)N[C@H](C(=O)N[C@H](C(=O)NCCCN(C)C)c4cc(O)cc(O)c4-c4cc3ccc4O)[C@H](O)c3ccc(c(Cl)c3)Oc3cc2cc(c3OC2OC(CO)C(O)[C@H](O)[C@@H]2O[C@H]2CC(C)(NCc3ccc(-c4ccc(Cl)cc4)cc3)[C@H](O)[C@H](C)O2)Oc2ccc(cc2Cl)[C@H]1O (stereo partly drawn) [Compound 14]
MIC [3]: 5 µg/mL (≈ 2.88 µM)
MIC [4]: 5 µg/mL (≈ 2.88 µM)

CN[C@H](CC(C)C)C(=O)N[C@H]1C(=O)N[C@@H](CC(N)=O)C(=O)N[C@H]2C(=O)N[C@@H]3C(=O)N[C@H](C(=O)N[C@H](C(=O)NCCC[N+]4(C)CCCC4)c4cc(O)cc(O)c4-c4cc3ccc4O)[C@H](O)c3ccc(c(Cl)c3)Oc3cc2cc(c3OC2OC(CO)C(O)[C@H](O)[C@@H]2O[C@H]2CC(C)(NCc3ccc(-c4ccc(Cl)cc4)cc3)[C@H](O)[C@H](C)O2)Oc2ccc(cc2Cl)[C@H]1O (stereo partly drawn) [Compound 16]
MIC [3]: 2 µg/mL
MIC [4]: 2 µg/mL

CCCCCCCCCCCCCC[N+](C)(C)CCCNC(=O)[C@H]1NC(=O)[C@H]2NC(=O)[C@@H](NC(=O)[C@@H]3NC(=O)[C@H](CC(N)=O)NC(=O)[C@H](NC(=O)[C@@H](CC(C)C)NC)[C@H](O)c4ccc(c(Cl)c4)Oc4cc3cc(c4OC3OC(CO)C(O)[C@H](O)[C@@H]3O[C@H]3CC(C)(NCc4ccc(-c5ccc(Cl)cc5)cc4)[C@H](O)[C@H](C)O3)Oc3ccc(cc3Cl)[C@H]2O)c2ccc(O)c(c2)-c2c(O)cc(O)cc21 (stereo partly drawn) [Compound 17]
MIC [3]: 2 µg/mL
MIC [4]: 2 µg/mL

CC1(C)S[C@@H]2[C@H](NC(=O)[C@H](N)c3ccccc3)C(=O)N2[C@H]1C(=O)O [ampicillin]
antibiotic susceptibility profile of the strain [4]: resistant

CC1(C)S[C@@H]2[C@H](NC(=O)Cc3ccccc3)C(=O)N2[C@H]1C(=O)O [benzylpenicillin]
antibiotic susceptibility profile of the strain [4]: resistant

O=C(N[C@H](CO)[C@H](O)c1ccc([N+](=O)[O-])cc1)C(Cl)Cl [chloramphenicol]
antibiotic susceptibility profile of the strain [3]: resistant

CCN(CC)CCS(=O)(=O)[C@@H]1CCN2C(=O)c3coc(n3)CC(=O)C[C@H](O)/C=C(C)/C=C/CNC(=O)/C=C/[C@@H](C)[C@@H](C(C)C)OC(=O)[C@@H]12 [dalfopristine]
antibiotic susceptibility profile of the strain [4]: sensitive

CC[C@H]1OC(=O)[C@H](C)[C@@H](O[C@H]2C[C@@](C)(OC)[C@@H](O)[C@H](C)O2)[C@H](C)[C@@H](O[C@@H]2O[C@H](C)C[C@H](N(C)C)[C@H]2O)[C@](C)(O)C[C@@H](C)C(=O)[C@H](C)[C@@H](O)[C@]1(C)O [erythromycin]
antibiotic susceptibility profile of the strain [3]: resistant
antibiotic susceptibility profile of the strain [4]: resistant

gentamicin
antibiotic susceptibility profile of the strain [3]: resistant

teicoplanin
antibiotic susceptibility profile of the strain [3]: resistant
antibiotic susceptibility profile of the strain [4]: resistant
